Measured values taken from ChEMBL document CHEMBL1131038, “Derivatives of the triazoloquinazoline adenosine antagonist (CGS 15943) having high potency at the human A2B and A3 receptor subtypes” (J Med Chem, 1998).

Tests used:
[1] = target: Adenosine receptor A2a (Rattus norvegicus, UniProt P30543); assay: Binding affinity was determined in radioligand binding assay at rat striatal Adenosine A2A receptor vs [3H]-CGS- 21680
[2] = target: T1, Adenosine receptor A1 (Rattus norvegicus, UniProt P25099)
T1 sequence (P25099 whole entry): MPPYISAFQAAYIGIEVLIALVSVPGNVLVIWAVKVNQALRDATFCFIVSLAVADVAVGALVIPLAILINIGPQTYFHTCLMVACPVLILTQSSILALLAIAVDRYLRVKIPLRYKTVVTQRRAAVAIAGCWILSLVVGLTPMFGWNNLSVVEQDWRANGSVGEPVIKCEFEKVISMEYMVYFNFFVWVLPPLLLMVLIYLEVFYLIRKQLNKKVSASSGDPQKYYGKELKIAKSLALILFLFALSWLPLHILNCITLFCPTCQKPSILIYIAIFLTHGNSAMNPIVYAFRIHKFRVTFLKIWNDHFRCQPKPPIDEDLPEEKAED
Description: Binding affinity was determined in radioligand binding assay at rat brain adenosine A1 receptor vs [3H]R-PIA

[3] = target: T2, Adenosine receptor A3 (Homo sapiens, UniProt P0DMS8); assay: biochemical
T2 sequence (P0DMS8 whole entry): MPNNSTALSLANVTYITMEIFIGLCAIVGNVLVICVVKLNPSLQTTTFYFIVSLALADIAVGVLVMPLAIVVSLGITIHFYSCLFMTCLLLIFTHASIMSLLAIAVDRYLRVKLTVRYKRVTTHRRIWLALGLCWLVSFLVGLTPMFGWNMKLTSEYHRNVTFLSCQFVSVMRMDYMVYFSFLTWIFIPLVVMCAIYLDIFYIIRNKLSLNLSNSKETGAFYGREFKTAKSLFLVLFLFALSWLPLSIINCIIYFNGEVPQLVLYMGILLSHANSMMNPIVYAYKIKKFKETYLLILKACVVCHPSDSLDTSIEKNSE
Description: Binding affinity at cloned human adenosine A3 receptor expressed in HEK293 cells was determined using [125I]AB-MECA as radioligand

[4] = Ratio against rat A2A receptor and Human A3 receptor
[5] = Ratio against rat A1 receptor and Human A3 receptor
[6] = target: T3, Adenosine receptor A2b (Homo sapiens, UniProt P29275); assay: Inhibition of 50 uM 5`-(N-ethylcarboxamido)adenosine induced cAMP production in CHO cell line expressing human Adenosine A2B receptor at 50 uM; format: functional, cell-based
T3 sequence (P29275 whole entry): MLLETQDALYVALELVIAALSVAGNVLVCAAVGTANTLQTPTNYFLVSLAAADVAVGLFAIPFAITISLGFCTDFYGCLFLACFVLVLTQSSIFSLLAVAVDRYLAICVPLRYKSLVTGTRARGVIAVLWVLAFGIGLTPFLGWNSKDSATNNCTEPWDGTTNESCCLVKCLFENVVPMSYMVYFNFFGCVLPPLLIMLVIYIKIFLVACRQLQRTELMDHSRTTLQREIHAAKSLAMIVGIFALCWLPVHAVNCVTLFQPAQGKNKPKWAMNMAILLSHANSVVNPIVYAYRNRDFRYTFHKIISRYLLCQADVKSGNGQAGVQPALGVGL

[7] = target: T3, Adenosine receptor A2b; assay: Inhibition of 50 uM 5`-(N-ethylcarboxamido)adenosine induced cAMP production in CHO cell line expressing human Adenosine A2B receptor; format: cell-based
[8] = target: T4, Adenosine receptor A2b (Homo sapiens) (UniProt P29275); assay: Inhibition at 50 uM on cAMP production induced by 50 uM 5`-(N-ethylcarboxamido)adenosine in CHO cell line transfected with human Adenosine A2B receptor cDNA; format: cell-based
T4 sequence (whole entry): T3 sequence (P29275 whole entry)

[9] = target: T3, Adenosine receptor A2b; assay: pA2 value at human Adenosine A2B receptor from Schild plots with slopes approaching unity; settings: read-out: pA2 (converted)

Adenosine receptor A2a, sequence (P30543 whole entry): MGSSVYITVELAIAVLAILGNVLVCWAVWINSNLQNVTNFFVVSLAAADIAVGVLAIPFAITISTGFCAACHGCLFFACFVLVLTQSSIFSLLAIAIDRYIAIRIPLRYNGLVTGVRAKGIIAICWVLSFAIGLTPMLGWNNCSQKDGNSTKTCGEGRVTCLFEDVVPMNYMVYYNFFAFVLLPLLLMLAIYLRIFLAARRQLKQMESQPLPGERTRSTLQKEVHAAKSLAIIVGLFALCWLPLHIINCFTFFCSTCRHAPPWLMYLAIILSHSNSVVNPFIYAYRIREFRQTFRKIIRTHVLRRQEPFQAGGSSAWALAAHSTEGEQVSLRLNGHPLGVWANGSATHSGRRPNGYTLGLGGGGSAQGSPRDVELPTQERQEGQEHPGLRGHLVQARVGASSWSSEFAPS

Row | SMILES | Ki [1] [nM] | Ki [2] [nM] | Ki [3] [nM] | Selectivity ratio [4] | Selectivity ratio [5] | IC50 [6] [nM] | IC50 [7] [nM] | inhibition [8] [%] | Kb [9] [nM]
1 | O=C(O)CCCC(=O)Nc1nc2ccc(Cl)cc2c2nc(-c3ccco3)nn12 | 1.15 | 45 | 81.3 | 0.014 | 0.55 | 1900 |  |  | 
2 | NCCC(=O)Nc1nc2ccc(Cl)cc2c2nc(-c3ccco3)nn12 | 7.58 | 89.8 | 874 | 0.0088 | 0.1 |  | 13300 | 83 | 
3 | Nc1ccc(CC(=O)Nc2nc3ccc(Cl)cc3c3nc(-c4ccco4)nn23)cc1 |  |  | 3.56 |  |  |  | 7400 | 90 | 
4 | NCCCC(=O)Nc1nc2ccc(Cl)cc2c2nc(-c3ccco3)nn12 | 1.38 | 8.75 |  | 0.017 | 0.11 |  | 270 | 100 | 10
5 | CC(=O)Nc1nc2ccc(Cl)cc2c2nc(-c3ccco3)nn12 |  |  |  |  |  |  | 2650 | 92 | 
6 | NCCCCC(=O)Nc1nc2ccc(Cl)cc2c2nc(-c3ccco3)nn12 | 1.13 | 6.99 | 57.9 | 0.02 | 0.12 |  | 1770 | 100 | 
